# Reference: publication PMC3753754, “Andrographis paniculata Extract and Andrographolide Modulate the Hepatic Drug Metabolism System and Plasma Tolbutamide Concentrations in Rats” (Evidence-based Complementary and Alternative Medicine : eCAM, 2013)
# Marks after values point to notes of the source that are not given here.
# How the values were obtained:
# Type in all cases: in vivo
# [1] = tested on: CYP2E1; assay: Immunoblot and RT-PCR of hepatic CYP2E1 in treated rats; settings: rat liver; APE or andrographolide for 5 days
# Description: Aliquots of microsomal protein (10 μg) were electrophoresed in an SDS-polyacrylamide gel, and proteins were then transferred to polyvinylidene fluoride membranes. After blocking, membranes were hybridized with antibodies to CYP1A1, CYP1A2, CYP2C6, CYP2C11, CYP2D1, CYP2E1, CYP3A1, and CYP3A2.
# Total RNA in liver samples was extracted by using the Trizol reagent (1 : 20, w/v). […] The sequences for the PCR primers were as follows: for CYP1A1 (forward: 5′-[…]-3′; reverse: 5′-[…]-3′), CYP1A2 (forward: 5′-[…]-3′; reverse: 5′-[…]-3′), CYP2C6 (forward: 5′-[…]-3′; reverse: 5′-[…]-3′), CYP2C11 (forward: 5′-[…]-3′; reverse: 5′-[…]-3′), CYP2D1 (forward: 5′-[…]-3′; reverse: 5′-[…]-3′), CYP2E1 (forward: 5′-[…]-3′; reverse: 5′-[…]-3′), CYP3A1 (forward: 5′-[…]-3′; reverse: 5′-[…]-3′), CYP3A2 (forward: 5′-[…]-3′; reverse: 5′-[…]-3′), and P-glycoprotein (forward: 5′-[…]-3′; reverse: 5′-[…]-3′). The PCR for CYP1A1 was performed as follows: 5 min at 95°C and then 35 cycles of 30 s at 94°C, 30 s at 54°C, and 60 s at 72°C. […] The PCR amplicons were then electrophoresed in 1% agarose gels containing 40 mM Tris/20 mM glacial acetic acid/2 mM EDTA buffer, and the relative densities of the PCR products were quantitated by use of Image Gauge software (Fujifilm, Tokyo, Japan). […]
# [2] = tested on: Cytochrome P450; assay: Total CYP content in liver microsomes of treated rats; settings: rat liver microsomes; oral 2 g/kg APE or 50 mg/kg AND daily for 5 days
# Description: (§1) Liver was homogenized (1 : 4, w/v) in an ice-cold potassium phosphate buffer (pH 7.4) containing 7.4 mM K2HPO4, 2.6 mM KH2PO4, 1.15% KCl, and 1 mM phenylmethylsulfonyl fluoride (PMSF). Tissue homogenates were centrifuged at 10,000 ×g for 30 min at 4°C. The resulting supernatant was then centrifuged at 105,000 ×g for 1 h at 4°C. The microsomes thus obtained were washed several times to get rid of possible tolbutamide contamination and this can avoid tolbutamide interference of CYP activity, and the microsomes were then suspended in potassium phosphate buffer (pH 7.7) containing 7.5 mM K2HPO4, 14.5 mM KH2PO4, and 1 mM EDTA. […] Metabolites of each CYP enzyme reaction were determined by LC/MS as reported previously. The contents of total CYP and cytochrome b5 were quantified by the method of Omura and Sato [29]. Enzyme activity is expressed as picomoles of metabolite formed per minute per milligram of protein. The NADPH-CYP reductase activity was measured as described by Phillips and Langdon with the use of cytochrome c as the substrate. The microsomal protein concentration was determined by using a Coomassie Plus protein assay kit (Pierce, Rockford, IL, USA).
# [3] = tested on: P-glycoprotein; assay: Immunoblot and RT-PCR of hepatic P-glycoprotein in treated rats; settings: rat liver; APE or andrographolide for 5 days
# Description: For P-glycoprotein expression, liver tissue was homogenized with phosphate-buffered saline containing 0.2% Triton X-100, 5 mM EDTA, and 1 mM PMSF. The homogenates were then centrifuged at 10,000 ×g for 30 min at 4°C. Proteins in the resulting supernatants were electrophoretically separated and were immunoblotted with P-glycoprotein antibody. The immunoreactive bands were detected by using an enhanced chemiluminescence plus Western blotting detection reagent (Amersham Biosciences, Boston, MA, USA).
# Total RNA in liver samples was extracted by using the Trizol reagent (1 : 20, w/v). […] The sequences for the PCR primers were as follows: for CYP1A1 (forward: 5′-[…]-3′; reverse: 5′-[…]-3′), CYP1A2 (forward: 5′-[…]-3′; reverse: 5′-[…]-3′), CYP2C6 (forward: 5′-[…]-3′; reverse: 5′-[…]-3′), CYP2C11 (forward: 5′-[…]-3′; reverse: 5′-[…]-3′), CYP2D1 (forward: 5′-[…]-3′; reverse: 5′-[…]-3′), CYP2E1 (forward: 5′-[…]-3′; reverse: 5′-[…]-3′), CYP3A1 (forward: 5′-[…]-3′; reverse: 5′-[…]-3′), CYP3A2 (forward: 5′-[…]-3′; reverse: 5′-[…]-3′), and P-glycoprotein (forward: 5′-[…]-3′; reverse: 5′-[…]-3′). […] The PCR amplicons were then electrophoresed in 1% agarose gels containing 40 mM Tris/20 mM glacial acetic acid/2 mM EDTA buffer, and the relative densities of the PCR products were quantitated by use of Image Gauge software (Fujifilm, Tokyo, Japan). […]
# [4] = tested on: CYP2E1; assay: p-Nitrophenol 6-hydroxylation in liver microsomes of treated rats; settings: rat liver microsomes; oral 2 g/kg APE or 50 mg/kg AND daily for 5 days
# Description: as §1
# [5] = tested on: UDP-glucuronosyltransferase; assay: Microsomal UGT activity (p-nitrophenol substrate) in liver of treated rats; settings: rat liver; oral 2 g/kg APE or 50 mg/kg AND daily for 5 days
# Description: The microsomal UGT activity was determined by using p-nitrophenol as the substrate. The rate of formation of p-nitrophenol glucuronic acid was measured by HPLC/UV [31]. GST activity was determined spectrophotometrically by measuring the formation rate of GSH conjugates.
# [6] = tested on: CYP3A; assay: Midazolam 1-hydroxylation in liver microsomes of treated rats; settings: rat liver microsomes; oral 2 g/kg APE or 50 mg/kg AND daily for 5 days
# Description: as §1
smiles,measurement,setting,value
"C=C1CC[C@@H]2[C@](C)(CO)[C@H](O)CC[C@@]2(C)[C@@H]1C/C=C1/C(=O)OC[C@H]1O [andrographolide, Andrographolide]",CYP2E1 protein or mRNA levels compared with controls,[1],no changes
same,Cytochrome P450 content,[2],674 ± 64^b pmol/mg protein
same,Protein and mRNA levels of membrane transporter P-glycoprotein,[3],only a minor effect
same,p-Nitrophenol 6-hydroxylase (2E1),[4],91.1 ± 13.0^b pmol/min/mg protein
same,UDP-glucuronosyltransferase activity,[5],21.1 ± 6.5^a nmol/min/mg protein
same,Midazolam 1-hydroxylase (3A),[6],320 ± 84^ab pmol/min/mg protein
